Source: patent US6346613B1, “Composition and method for enhancing paracellular transport across cell layers” (Elan Corporation, plc, priority 1997, dated 2002)
Several values for one entry are separate records, joined by “and”; a condition that tells them apart may be missing. Identical values can stand only once.

Tests used:
Caco-2 monolayers = assay: Transepithelial electrical resistance (TER) of Caco-2 monolayers on snapwells; type: cell-based, Human; parameters: unit not given beside the values; settings: Experiment 1, per snapwell, treatment with lipofectamine + oligonucleotide
Description: All solutions were warmed to 37° C. before use.

[1] = Experiment 1, [3H]-mannitol, 90 minutes, Caco-2

Description for polarized Caco-2 cells: Human intestinal Caco-2 cells were grown using standard techniques well known to those skilled in the art. The cells were seeded onto polycarbonate filters (Costar Snapwells; diameter=12 mm; area=1.13 cm^2; pore size=0.4m) at a density of 0.5×10^6 cm^2. For antisense oligonucleotide studies, 18-25 day old cell monolayers were used which have transepithelial electrical resistance (TER) measurements in the range 200-400 cm^2.
All incubations were at 37° C. in 5% CO2 atmosphere. All solutions were warmed to 37° C. before use. The following procedure was carried out once a day over three days. After reading the TER, the cells were washed once and incubated in a reduced serum medium (RSM; Opti-MEM 1 with GlutaMax 1; Gibco-BRL) for 30 minutes. Meanwhile, the lipofectamine-oligonucleotide complex was allowed to form at room temperature. Lipofectamine (20 μl/snapwell; Gibco BRL CN. 18324-012) was mixed with occludin antisense DNA oligonucleotide, with occludin scrambled oligonucleotide or with water control in RSM.
The lipofectin:oligonucleotide complex was added to the apical surface of the snapwells and the cells were incubated for 2 hours. The apical and basolateral media were then replaced with normal medium (except on day 4). After the 2 hour incubation on day 3, transepithelial flux of ^3H-mannitol was measured.
Caco-2 cells were washed once in buffered Hank's balanced salt solution (bHBSS; Gibco CN.14065-031; supplemented with 0.011M glucose, 15 mM HEPES acid [3.575 g/l; Sigma CN.H3375], 10 mM HEPES base [2.603 g/l; Sigma CN. H1016]) and were incubated 30 minutes. The apical reservoir bHBSS was replaced with 1 ml buffered HBSS containing 1 μCi/ml of the hydrophilic marker ^3H-mannitol (New England Biolabs). […] The samples were added to 4 ml scintillation fluid and radioactivity for each vial counted on a scintillation counter.
Fully differentiated Caco-2 monolayers were grown as in Example 1. […] On day 4, [^3H]-mannitol was applied to the apical domain and flux was determined by measuring the radioactivity (cpm) transferred to the basolateral reservoir over 90 minutes as in Example 3. […]

Row | Substance | increase in flux relative to no oligonucleotide (polarized Caco-2 cells; [1]) [fold] | increase in flux relative to occludin scrambled oligonucleotide (polarized Caco-2 cells; [1]) [fold] | mean increase in [3H]-mannitol flux relative to control scrambled sequence antisense DNA (polarized Caco-2 cells; Experiment 2 (FIG. 2), 500 μM, Caco-2 monolayers on snapwells) [fold] | TER (Caco-2 monolayers; listed as Lipofectamine + Occludin Antisense) | TER (Caco-2 monolayers; listed as Lipofectamine + Scrambled Antisense)
1 | 5′ AAG AGG CCT GGA TGA CA 3′ (antisense AAGAGGCCTGGATGACA; chemistry not given here) [occludin antisense oligonucleotide] | 1.6 | 1.6 | 2.2 | 1260 and 1410 | 
2 | 5′ GCA AGT CAG GAC GTA GA 3′ (GCAAGTCAGGACGTAGA; chemistry not given here) [occludin scrambled oligonucleotide, reference compound] |  |  |  |  | 1280 and 1700
